# Target: ROS1 (human) (UniProt P08922)
# Assay: radiometric filter-binding kinase assay, Kinase HotSpot
# Settings: compound 0.5 µM; ATP 10 µM
row,SMILES,residual activity [%]
1,CCCNC(=O)Nc1ccc(Oc2ncnc3cc(OC)c(OC)cc23)cc1Cl,97.6
2,Cc1cc2ncc(-c3ccccc3)nc2cc1C,100
3,Nc1n[nH]c2nnc(-c3c(-c4ccccc4)nn4ccccc34)cc12,80.2
4,O=c1cc(N2CCNCC2)oc2c(-c3ccccc3)cccc12,99.2

# Target: DYRK1B (human) (UniProt Q9Y463)
# Assay: as above
# Settings: compound 0.5 µM; ATP 10 µM
row,SMILES,residual activity [%]
1,CCCNC(=O)Nc1ccc(Oc2ncnc3cc(OC)c(OC)cc23)cc1Cl,104
2,Cc1cc2ncc(-c3ccccc3)nc2cc1C,106
3,Nc1n[nH]c2nnc(-c3c(-c4ccccc4)nn4ccccc34)cc12,101
4,O=c1cc(N2CCNCC2)oc2c(-c3ccccc3)cccc12,99.2

# Target: PAK7 (human) (UniProt Q9P286)
# Assay: as above
# Settings: compound 0.5 µM; ATP 10 µM
# Chain of PAK7 (human) (Q9P286 whole entry, looked up): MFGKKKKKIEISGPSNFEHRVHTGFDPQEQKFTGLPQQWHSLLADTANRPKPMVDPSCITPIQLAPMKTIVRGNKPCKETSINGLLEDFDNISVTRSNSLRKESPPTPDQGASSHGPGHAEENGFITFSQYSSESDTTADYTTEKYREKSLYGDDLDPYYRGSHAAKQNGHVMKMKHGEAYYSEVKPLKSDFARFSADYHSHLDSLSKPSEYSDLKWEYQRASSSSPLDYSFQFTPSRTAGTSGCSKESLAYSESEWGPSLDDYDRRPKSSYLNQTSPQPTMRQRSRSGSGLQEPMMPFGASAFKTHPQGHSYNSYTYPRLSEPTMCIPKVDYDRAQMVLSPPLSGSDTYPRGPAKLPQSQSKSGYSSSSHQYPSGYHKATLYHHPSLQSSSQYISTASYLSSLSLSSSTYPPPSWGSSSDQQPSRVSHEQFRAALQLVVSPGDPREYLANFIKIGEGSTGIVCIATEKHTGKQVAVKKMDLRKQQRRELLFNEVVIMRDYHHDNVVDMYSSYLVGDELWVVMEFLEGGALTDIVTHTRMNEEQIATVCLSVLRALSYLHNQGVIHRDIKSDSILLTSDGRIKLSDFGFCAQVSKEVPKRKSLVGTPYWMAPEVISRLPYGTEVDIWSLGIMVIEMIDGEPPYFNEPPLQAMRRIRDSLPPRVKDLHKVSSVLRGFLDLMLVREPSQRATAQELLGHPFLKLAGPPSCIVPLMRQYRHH
row,SMILES,residual activity [%]
1,CCCNC(=O)Nc1ccc(Oc2ncnc3cc(OC)c(OC)cc23)cc1Cl,84.5
2,Cc1cc2ncc(-c3ccccc3)nc2cc1C,96.9
3,Nc1n[nH]c2nnc(-c3c(-c4ccccc4)nn4ccccc34)cc12,98.2
4,O=c1cc(N2CCNCC2)oc2c(-c3ccccc3)cccc12,104

# Target: CDC42BPB (human) (UniProt Q9Y5S2)
# Assay: as above
# Settings: compound 0.5 µM; ATP 10 µM
# Chain of CDC42BPB (human) (Q9Y5S2 whole entry, looked up): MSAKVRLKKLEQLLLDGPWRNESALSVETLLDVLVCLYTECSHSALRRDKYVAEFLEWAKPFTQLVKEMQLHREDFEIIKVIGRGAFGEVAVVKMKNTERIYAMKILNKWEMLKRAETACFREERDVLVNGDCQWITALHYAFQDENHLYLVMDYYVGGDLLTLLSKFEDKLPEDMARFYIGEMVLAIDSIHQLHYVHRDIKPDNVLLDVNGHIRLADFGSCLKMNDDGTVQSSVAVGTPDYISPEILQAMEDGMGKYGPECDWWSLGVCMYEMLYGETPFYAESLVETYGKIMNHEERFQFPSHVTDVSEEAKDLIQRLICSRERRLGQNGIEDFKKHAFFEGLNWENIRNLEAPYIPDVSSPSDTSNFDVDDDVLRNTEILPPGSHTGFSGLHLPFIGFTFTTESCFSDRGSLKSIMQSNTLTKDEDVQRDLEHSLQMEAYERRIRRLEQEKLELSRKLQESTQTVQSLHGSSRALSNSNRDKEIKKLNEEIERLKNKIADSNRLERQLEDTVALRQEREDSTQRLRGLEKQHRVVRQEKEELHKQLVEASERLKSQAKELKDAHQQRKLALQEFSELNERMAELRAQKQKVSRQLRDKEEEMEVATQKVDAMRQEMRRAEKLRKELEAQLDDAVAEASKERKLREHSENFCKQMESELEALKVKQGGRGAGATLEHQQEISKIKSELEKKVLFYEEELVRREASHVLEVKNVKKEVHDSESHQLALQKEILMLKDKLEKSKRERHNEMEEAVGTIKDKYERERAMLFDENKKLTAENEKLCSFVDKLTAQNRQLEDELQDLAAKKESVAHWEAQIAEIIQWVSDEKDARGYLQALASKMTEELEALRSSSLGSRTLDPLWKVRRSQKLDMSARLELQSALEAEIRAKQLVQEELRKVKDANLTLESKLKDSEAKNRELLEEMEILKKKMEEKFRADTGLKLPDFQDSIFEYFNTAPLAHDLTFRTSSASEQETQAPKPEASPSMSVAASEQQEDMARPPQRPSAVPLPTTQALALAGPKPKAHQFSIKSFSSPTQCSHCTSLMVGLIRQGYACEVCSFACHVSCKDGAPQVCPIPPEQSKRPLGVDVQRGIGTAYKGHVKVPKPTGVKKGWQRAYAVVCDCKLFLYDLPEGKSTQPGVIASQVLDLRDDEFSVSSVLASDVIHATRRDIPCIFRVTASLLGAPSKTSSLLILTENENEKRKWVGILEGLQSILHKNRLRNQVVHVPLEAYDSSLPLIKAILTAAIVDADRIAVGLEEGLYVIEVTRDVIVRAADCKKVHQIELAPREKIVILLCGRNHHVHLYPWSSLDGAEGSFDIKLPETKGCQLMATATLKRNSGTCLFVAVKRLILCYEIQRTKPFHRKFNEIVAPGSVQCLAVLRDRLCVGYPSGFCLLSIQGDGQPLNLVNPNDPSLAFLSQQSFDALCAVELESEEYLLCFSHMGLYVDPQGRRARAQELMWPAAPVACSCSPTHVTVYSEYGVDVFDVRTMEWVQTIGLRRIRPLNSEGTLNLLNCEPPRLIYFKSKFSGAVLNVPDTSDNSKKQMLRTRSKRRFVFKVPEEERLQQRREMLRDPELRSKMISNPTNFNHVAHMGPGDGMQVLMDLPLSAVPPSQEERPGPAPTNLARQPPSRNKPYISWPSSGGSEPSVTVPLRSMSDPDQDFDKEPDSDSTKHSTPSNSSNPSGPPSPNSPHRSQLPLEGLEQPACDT
row,SMILES,residual activity [%]
1,CCCNC(=O)Nc1ccc(Oc2ncnc3cc(OC)c(OC)cc23)cc1Cl,87.4
2,Cc1cc2ncc(-c3ccccc3)nc2cc1C,101
3,Nc1n[nH]c2nnc(-c3c(-c4ccccc4)nn4ccccc34)cc12,93.4
4,O=c1cc(N2CCNCC2)oc2c(-c3ccccc3)cccc12,97.5

# Target: RET (human) (UniProt P07949)
# Assay: as above
# Settings: compound 0.5 µM; ATP 10 µM
row,SMILES,residual activity [%]
1,CCCNC(=O)Nc1ccc(Oc2ncnc3cc(OC)c(OC)cc23)cc1Cl,8.42
2,Cc1cc2ncc(-c3ccccc3)nc2cc1C,88
3,Nc1n[nH]c2nnc(-c3c(-c4ccccc4)nn4ccccc34)cc12,93.7
4,O=c1cc(N2CCNCC2)oc2c(-c3ccccc3)cccc12,106

# Target: EPHB3 (human) (UniProt P54753)
# Assay: as above
# Settings: compound 0.5 µM; ATP 10 µM
row,SMILES,residual activity [%]
1,CCCNC(=O)Nc1ccc(Oc2ncnc3cc(OC)c(OC)cc23)cc1Cl,93.7
2,Cc1cc2ncc(-c3ccccc3)nc2cc1C,98.4
3,Nc1n[nH]c2nnc(-c3c(-c4ccccc4)nn4ccccc34)cc12,96.8
4,O=c1cc(N2CCNCC2)oc2c(-c3ccccc3)cccc12,94.5

# Target: CHEK2 (human) (UniProt O96017)
# Assay: as above
# Settings: compound 0.5 µM; ATP 10 µM
row,SMILES,residual activity [%]
1,CCCNC(=O)Nc1ccc(Oc2ncnc3cc(OC)c(OC)cc23)cc1Cl,80
2,Cc1cc2ncc(-c3ccccc3)nc2cc1C,96.8
3,Nc1n[nH]c2nnc(-c3c(-c4ccccc4)nn4ccccc34)cc12,97
4,O=c1cc(N2CCNCC2)oc2c(-c3ccccc3)cccc12,96.6

# Target: IKBKB (human) (UniProt O14920)
# Assay: as above
# Settings: compound 0.5 µM; ATP 10 µM
row,SMILES,residual activity [%]
1,CCCNC(=O)Nc1ccc(Oc2ncnc3cc(OC)c(OC)cc23)cc1Cl,100
2,Cc1cc2ncc(-c3ccccc3)nc2cc1C,101
3,Nc1n[nH]c2nnc(-c3c(-c4ccccc4)nn4ccccc34)cc12,115
4,O=c1cc(N2CCNCC2)oc2c(-c3ccccc3)cccc12,103

# Target: MET (human) (UniProt P08581)
# Assay: as above
# Settings: compound 0.5 µM; ATP 10 µM
row,SMILES,residual activity [%]
1,CCCNC(=O)Nc1ccc(Oc2ncnc3cc(OC)c(OC)cc23)cc1Cl,73.6
2,Cc1cc2ncc(-c3ccccc3)nc2cc1C,95.1
3,Nc1n[nH]c2nnc(-c3c(-c4ccccc4)nn4ccccc34)cc12,95
4,O=c1cc(N2CCNCC2)oc2c(-c3ccccc3)cccc12,107

# Target: HIPK1 (human) (UniProt Q86Z02)
# Assay: as above
# Settings: compound 0.5 µM; ATP 10 µM
# Chain of HIPK1 (human) (Q86Z02 whole entry, looked up): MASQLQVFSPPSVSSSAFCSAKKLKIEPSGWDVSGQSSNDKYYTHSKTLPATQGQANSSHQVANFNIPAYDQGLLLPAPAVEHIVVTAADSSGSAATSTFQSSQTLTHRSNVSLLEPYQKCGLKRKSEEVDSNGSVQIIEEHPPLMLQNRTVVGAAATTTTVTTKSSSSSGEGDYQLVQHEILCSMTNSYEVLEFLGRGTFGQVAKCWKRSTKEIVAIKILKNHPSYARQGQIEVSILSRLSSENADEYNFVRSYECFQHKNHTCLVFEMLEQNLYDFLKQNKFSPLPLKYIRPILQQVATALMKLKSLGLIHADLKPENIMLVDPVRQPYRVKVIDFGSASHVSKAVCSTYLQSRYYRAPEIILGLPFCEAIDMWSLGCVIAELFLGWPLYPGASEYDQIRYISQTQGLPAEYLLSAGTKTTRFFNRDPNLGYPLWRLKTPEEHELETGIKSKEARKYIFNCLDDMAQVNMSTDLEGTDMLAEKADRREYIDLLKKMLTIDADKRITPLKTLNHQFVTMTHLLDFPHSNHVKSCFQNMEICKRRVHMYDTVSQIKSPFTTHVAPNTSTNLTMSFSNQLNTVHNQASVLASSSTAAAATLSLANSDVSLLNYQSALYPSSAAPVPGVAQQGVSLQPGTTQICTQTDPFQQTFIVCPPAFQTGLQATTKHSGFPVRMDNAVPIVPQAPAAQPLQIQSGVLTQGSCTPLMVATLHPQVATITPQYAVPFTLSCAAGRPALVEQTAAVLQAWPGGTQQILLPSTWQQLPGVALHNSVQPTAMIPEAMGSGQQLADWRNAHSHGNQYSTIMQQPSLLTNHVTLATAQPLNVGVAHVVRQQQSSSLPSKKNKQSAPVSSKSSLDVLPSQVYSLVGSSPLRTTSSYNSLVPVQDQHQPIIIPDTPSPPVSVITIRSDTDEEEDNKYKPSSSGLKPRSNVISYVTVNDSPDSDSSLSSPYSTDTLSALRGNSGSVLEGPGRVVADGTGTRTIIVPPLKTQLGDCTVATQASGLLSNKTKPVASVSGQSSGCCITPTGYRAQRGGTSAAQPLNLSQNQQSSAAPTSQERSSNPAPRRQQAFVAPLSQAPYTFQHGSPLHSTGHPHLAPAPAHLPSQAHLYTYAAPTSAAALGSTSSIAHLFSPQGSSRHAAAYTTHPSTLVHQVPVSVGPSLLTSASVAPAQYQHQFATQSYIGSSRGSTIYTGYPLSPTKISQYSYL
row,SMILES,residual activity [%]
1,CCCNC(=O)Nc1ccc(Oc2ncnc3cc(OC)c(OC)cc23)cc1Cl,96.8
2,Cc1cc2ncc(-c3ccccc3)nc2cc1C,105
3,Nc1n[nH]c2nnc(-c3c(-c4ccccc4)nn4ccccc34)cc12,99.7
4,O=c1cc(N2CCNCC2)oc2c(-c3ccccc3)cccc12,110

# Target: MAPK12 (human) (UniProt P53778)
# Assay: as above
# Settings: compound 0.5 µM; ATP 10 µM
# Chain of MAPK12 (human) (P53778 whole entry, looked up): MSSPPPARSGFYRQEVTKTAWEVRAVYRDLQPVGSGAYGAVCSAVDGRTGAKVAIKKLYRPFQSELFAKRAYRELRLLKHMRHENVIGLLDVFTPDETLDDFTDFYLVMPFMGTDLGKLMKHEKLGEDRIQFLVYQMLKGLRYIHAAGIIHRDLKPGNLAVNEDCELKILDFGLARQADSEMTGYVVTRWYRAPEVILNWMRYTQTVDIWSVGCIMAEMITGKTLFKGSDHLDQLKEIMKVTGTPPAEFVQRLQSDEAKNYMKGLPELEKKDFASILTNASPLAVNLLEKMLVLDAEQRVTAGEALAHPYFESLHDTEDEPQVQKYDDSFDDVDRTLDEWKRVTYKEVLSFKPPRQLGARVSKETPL
row,SMILES,residual activity [%]
1,CCCNC(=O)Nc1ccc(Oc2ncnc3cc(OC)c(OC)cc23)cc1Cl,61.9
2,Cc1cc2ncc(-c3ccccc3)nc2cc1C,87.3
3,Nc1n[nH]c2nnc(-c3c(-c4ccccc4)nn4ccccc34)cc12,104
4,O=c1cc(N2CCNCC2)oc2c(-c3ccccc3)cccc12,92

# Target: CHUK (human) (UniProt O15111)
# Assay: as above
# Settings: compound 0.5 µM; ATP 10 µM
row,SMILES,residual activity [%]
1,CCCNC(=O)Nc1ccc(Oc2ncnc3cc(OC)c(OC)cc23)cc1Cl,84.9
2,Cc1cc2ncc(-c3ccccc3)nc2cc1C,86.9
3,Nc1n[nH]c2nnc(-c3c(-c4ccccc4)nn4ccccc34)cc12,97.5
4,O=c1cc(N2CCNCC2)oc2c(-c3ccccc3)cccc12,103

# Target: TAOK3 (human) (UniProt Q9H2K8)
# Assay: as above
# Settings: compound 0.5 µM; ATP 10 µM
row,SMILES,residual activity [%]
1,CCCNC(=O)Nc1ccc(Oc2ncnc3cc(OC)c(OC)cc23)cc1Cl,95.9
2,Cc1cc2ncc(-c3ccccc3)nc2cc1C,96.2
3,Nc1n[nH]c2nnc(-c3c(-c4ccccc4)nn4ccccc34)cc12,101
4,O=c1cc(N2CCNCC2)oc2c(-c3ccccc3)cccc12,92.8

# Target: MAPKAPK2 (human) (UniProt P49137)
# Assay: as above
# Settings: compound 0.5 µM; ATP 10 µM
row,SMILES,residual activity [%]
1,CCCNC(=O)Nc1ccc(Oc2ncnc3cc(OC)c(OC)cc23)cc1Cl,101
2,Cc1cc2ncc(-c3ccccc3)nc2cc1C,95.9
3,Nc1n[nH]c2nnc(-c3c(-c4ccccc4)nn4ccccc34)cc12,105
4,O=c1cc(N2CCNCC2)oc2c(-c3ccccc3)cccc12,103

# Target: BRSK1 (human) (UniProt Q8TDC3)
# Assay: as above
# Settings: compound 0.5 µM; ATP 10 µM
row,SMILES,residual activity [%]
1,CCCNC(=O)Nc1ccc(Oc2ncnc3cc(OC)c(OC)cc23)cc1Cl,98.5
2,Cc1cc2ncc(-c3ccccc3)nc2cc1C,95.1
3,Nc1n[nH]c2nnc(-c3c(-c4ccccc4)nn4ccccc34)cc12,98.6
4,O=c1cc(N2CCNCC2)oc2c(-c3ccccc3)cccc12,95.3

# Target: NTRK3 (human) (UniProt Q16288)
# Assay: as above
# Settings: compound 0.5 µM; ATP 10 µM
row,SMILES,residual activity [%]
1,CCCNC(=O)Nc1ccc(Oc2ncnc3cc(OC)c(OC)cc23)cc1Cl,89
2,Cc1cc2ncc(-c3ccccc3)nc2cc1C,88.2
3,Nc1n[nH]c2nnc(-c3c(-c4ccccc4)nn4ccccc34)cc12,76.6
4,O=c1cc(N2CCNCC2)oc2c(-c3ccccc3)cccc12,99.8

# Target: MAP2K2 (human) (UniProt P36507)
# Assay: as above
# Settings: compound 0.5 µM; ATP 10 µM
row,SMILES,residual activity [%]
1,CCCNC(=O)Nc1ccc(Oc2ncnc3cc(OC)c(OC)cc23)cc1Cl,99.9
2,Cc1cc2ncc(-c3ccccc3)nc2cc1C,97.6
3,Nc1n[nH]c2nnc(-c3c(-c4ccccc4)nn4ccccc34)cc12,99.4
4,O=c1cc(N2CCNCC2)oc2c(-c3ccccc3)cccc12,94

# Target: DDR2 (human) (UniProt Q16832)
# Assay: as above
# Settings: compound 0.5 µM; ATP 10 µM
row,SMILES,residual activity [%]
1,CCCNC(=O)Nc1ccc(Oc2ncnc3cc(OC)c(OC)cc23)cc1Cl,67.6
2,Cc1cc2ncc(-c3ccccc3)nc2cc1C,95.7
3,Nc1n[nH]c2nnc(-c3c(-c4ccccc4)nn4ccccc34)cc12,101
4,O=c1cc(N2CCNCC2)oc2c(-c3ccccc3)cccc12,95.5

# Target: LRRK2 (human) (UniProt Q5S007)
# Assay: as above
# Settings: compound 0.5 µM; ATP 10 µM
row,SMILES,residual activity [%]
1,CCCNC(=O)Nc1ccc(Oc2ncnc3cc(OC)c(OC)cc23)cc1Cl,94.1
2,Cc1cc2ncc(-c3ccccc3)nc2cc1C,94.4
3,Nc1n[nH]c2nnc(-c3c(-c4ccccc4)nn4ccccc34)cc12,91.8
4,O=c1cc(N2CCNCC2)oc2c(-c3ccccc3)cccc12,101

# Target: WEE1 (human) (UniProt P30291)
# Assay: as above
# Settings: compound 0.5 µM; ATP 10 µM
row,SMILES,residual activity [%]
1,CCCNC(=O)Nc1ccc(Oc2ncnc3cc(OC)c(OC)cc23)cc1Cl,92.9
2,Cc1cc2ncc(-c3ccccc3)nc2cc1C,105
3,Nc1n[nH]c2nnc(-c3c(-c4ccccc4)nn4ccccc34)cc12,92.4
4,O=c1cc(N2CCNCC2)oc2c(-c3ccccc3)cccc12,83.4

# Target: DCLK2 (human) (UniProt Q8N568)
# Assay: as above
# Settings: compound 0.5 µM; ATP 10 µM
# Chain of DCLK2 (human) (Q8N568 whole entry, looked up): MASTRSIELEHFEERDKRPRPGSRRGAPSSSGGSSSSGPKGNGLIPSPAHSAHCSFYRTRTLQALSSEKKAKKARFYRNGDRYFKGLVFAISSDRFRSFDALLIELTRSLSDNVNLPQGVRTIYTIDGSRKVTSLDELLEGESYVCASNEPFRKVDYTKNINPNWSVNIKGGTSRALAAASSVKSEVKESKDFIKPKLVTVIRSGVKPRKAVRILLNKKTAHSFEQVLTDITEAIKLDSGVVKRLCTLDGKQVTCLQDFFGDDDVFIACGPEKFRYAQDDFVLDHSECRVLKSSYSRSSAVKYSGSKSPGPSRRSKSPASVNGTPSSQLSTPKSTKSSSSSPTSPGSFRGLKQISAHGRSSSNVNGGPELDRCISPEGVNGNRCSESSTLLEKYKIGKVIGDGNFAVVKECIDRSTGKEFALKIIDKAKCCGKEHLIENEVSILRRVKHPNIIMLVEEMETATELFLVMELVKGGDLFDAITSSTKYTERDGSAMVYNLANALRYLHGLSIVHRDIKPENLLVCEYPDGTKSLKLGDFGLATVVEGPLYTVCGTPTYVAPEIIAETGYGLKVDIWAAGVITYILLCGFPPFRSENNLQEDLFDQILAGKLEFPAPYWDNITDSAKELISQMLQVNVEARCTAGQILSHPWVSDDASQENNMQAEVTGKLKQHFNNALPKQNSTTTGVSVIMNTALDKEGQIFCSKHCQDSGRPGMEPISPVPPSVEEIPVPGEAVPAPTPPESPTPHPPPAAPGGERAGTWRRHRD
row,SMILES,residual activity [%]
1,CCCNC(=O)Nc1ccc(Oc2ncnc3cc(OC)c(OC)cc23)cc1Cl,96.4
2,Cc1cc2ncc(-c3ccccc3)nc2cc1C,100
3,Nc1n[nH]c2nnc(-c3c(-c4ccccc4)nn4ccccc34)cc12,100
4,O=c1cc(N2CCNCC2)oc2c(-c3ccccc3)cccc12,116

# From the kinase profiling compilation of Christmann-Franck et al. (2016)
